≈ marks a conversion by molar mass, not a printed value. Starred links: 1 amine or outer side, 2 acyl side, 3 side chain; linkers in the order of their positions; H or OH if unused. Positions of bridges follow the written chain, without caps; N, C: chain ends. Residues, ends and D or L forms follow the SMILES beside them. mXylylene = c1cc(C[*:1])cc(C[*:2])c1; pXylylene = c1cc(C[*:2])ccc1C[*:1]; X1 = C(=CC[*:2])C[*:1]
Tests used:
[1] = system: Acinetobacter baumannii (A. baumannii); format: cell-based; settings: microbroth dilution, 20-24 hours at 37° C.
Experimental: (§1) Antimicrobial Activity Assay: The following microbroth dilution protocol was adapted from CLSI to determine the minimum inhibitory concentration (MIC) of StAMPs. Briefly, Mueller-Hinton broth (MHB) or cation-adjusted Mueller-Hinton broth (MHB II) was prepared and autoclaved. Then, a colony of bacterial cells was picked and grown overnight in broth at 37° C. and then diluted and allowed to grow again for 3-4 hours. Serial dilutions of peptide stocks in water (10 μl) were prepared using clear round-bottom polypropylene 96-well plates. Then 90 μl of bacteria in broth was added to give a final inoculum of 5×10^5 CFU/ml. The plates were then covered with porous tape to reduce evaporation and incubated for 20-24 hours at 37° C. The MIC was the minimum peptide concentration at which no visible bacterial growth was observed.

[2] = system: Escherichia coli (E. coli); format: cell-based; settings: microbroth dilution, 20-24 hours at 37° C.
Experimental: as §1

[3] = system: Klebsiella pneumoniae (K. pneumoniae); format: cell-based; settings: microbroth dilution, 20-24 hours at 37° C.
Experimental: as §1

[4] = system: Pseudomonas aeruginosa (P. aeruginosa); format: cell-based; settings: microbroth dilution, 20-24 hours at 37° C.
Experimental: as §1

[5] = system: Staphylococcus aureus (S. aureus); format: cell-based; settings: microbroth dilution, 20-24 hours at 37° C.
Experimental: as §1

[6] = 90 minute cytotoxicity assay (LDH release), renal toxicity; format: cell-based; settings: 90 minutes of incubation, LDH release; read-out: Inhibitory Concentration at 50% Cytotoxicity (IC50) Human Renal Proximal Tubule Epithelial Cells (RPTEC)
In short: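 RPTEC plated overnight, given fresh medium, then exposed to serial peptide dilutions or vehicle for 90 min at 37° C. Medium LDH measured by 10 min reagent incubation and absorbance at 490 nm.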

[7] = 48 hours cytotoxicity assay (CellTiter-Glo), liver toxicity; format: cell-based, human; settings: 48 hours of incubation, CellTiter-Glo; read-out: Inhibitory Concentration at 50% Cytotoxicity (IC50) Human Liver Cells (HepG2)
In short: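 HepG2 cells in EMEM with 10% FBS, allowed to attach 4 h, then exposed to serially diluted StAMPs or vehicle for 48 h at 37 °C. Viability read by CellTiter-Glo luminescence.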

CC[C@H](C)[C@H](NC(=O)CN)C(=O)N[C@@H](Cc1ccccc1)C(=O)N[C@@H](CO)C(=O)N[C@@H](CCCCN)C(=O)N[C@@H](CC(C)C)C(=O)N[C@H]1CSCc2ccc(cc2)CSC[C@@H](C(=O)N[C@@H](CCCCN)C(=O)N[C@@H](CC(N)=O)C(=O)N[C@@H](CC(C)C)C(=O)N[C@@H](CC(C)C)C(=O)N[C@H](C(=O)N[C@@H](CO)C(=O)NCC(=O)N[C@@H](CC(C)C)C(=O)N[C@@H](CCCCN)C(=O)NCC(N)=O)[C@@H](C)CC)NC(=O)[C@H](CCCCN)NC(=O)[C@H](CCCCN)NC(=O)CNC1=O [compound 3] (H-GIFSKLCGKKCKNLLISGLKG-NH2; linker 7-11 via pXylylene)
Minimum Inhibitory Concentration (MIC) A. baumannii [1]: 2 µg/mL | Minimum Inhibitory Concentration (MIC) E. coli [2]: 2 µg/mL | Minimum Inhibitory Concentration (MIC) K. pneumoniae [3]: 16 µg/mL | Minimum Inhibitory Concentration (MIC) P. aeruginosa [4]: 8 µg/mL | Minimum Inhibitory Concentration (MIC) S. aureus [5]: >64 µg/mL | IC50 [6]: 79 µg/mL (≈ 34.2 µM) | IC50 [7]: 86 µg/mL (≈ 37.2 µM)

CC[C@H](C)[C@H](NC(=O)CN)C(=O)N[C@@H](Cc1ccccc1)C(=O)N[C@@H](CO)C(=O)N[C@@H](CCCCN)C(=O)N[C@@H](CC(C)C)C(=O)N[C@@H](C)C(=O)N[C@H]1CSCc2cccc(c2)CSC[C@@H](C(=O)N[C@@H](CC(N)=O)C(=O)N[C@@H](CC(C)C)C(=O)N[C@@H](CC(C)C)C(=O)N[C@H](C(=O)N[C@@H](CO)C(=O)NCC(=O)N[C@@H](CC(C)C)C(=O)N[C@@H](CCCCN)C(=O)NCC(N)=O)[C@@H](C)CC)NC(=O)[C@H]([C@@H](C)CC)NC(=O)[C@H](CCCCN)NC(=O)[C@H](CCCCN)NC1=O [compound 10] (H-GIFSKLACKKICNLLISGLKG-NH2; linker 8-12 via mXylylene)
Minimum Inhibitory Concentration (MIC) A. baumannii [1]: 4 µg/mL | Minimum Inhibitory Concentration (MIC) E. coli [2]: 4 µg/mL | Minimum Inhibitory Concentration (MIC) K. pneumoniae [3]: 8 µg/mL | Minimum Inhibitory Concentration (MIC) P. aeruginosa [4]: 16 µg/mL | Minimum Inhibitory Concentration (MIC) S. aureus [5]: 32 µg/mL | IC50 [6]: 17 µg/mL (≈ 7.37 µM) | IC50 [7]: 18 µg/mL (≈ 7.8 µM)

CC[C@H](C)[C@H](NC(=O)CN)C(=O)N[C@@H](Cc1ccccc1)C(=O)N[C@@H](CO)C(=O)N[C@@H](CCCCN)C(=O)N[C@@H](CC(C)C)C(=O)N[C@@H](C)C(=O)N[C@H]1CSCc2ccc(cc2)CSC[C@@H](C(=O)N[C@@H](CC(N)=O)C(=O)N[C@@H](CC(C)C)C(=O)N[C@@H](CC(C)C)C(=O)N[C@H](C(=O)N[C@@H](CO)C(=O)NCC(=O)N[C@@H](CC(C)C)C(=O)N[C@@H](CCCCN)C(=O)NCC(N)=O)[C@@H](C)CC)NC(=O)[C@H]([C@@H](C)CC)NC(=O)[C@H](CCCCN)NC(=O)[C@H](CCCCN)NC1=O [compound 11] (H-GIFSKLACKKICNLLISGLKG-NH2; linker 8-12 via pXylylene)
Minimum Inhibitory Concentration (MIC) A. baumannii [1]: 4 µg/mL | Minimum Inhibitory Concentration (MIC) E. coli [2]: 4 µg/mL | Minimum Inhibitory Concentration (MIC) K. pneumoniae [3]: 8 µg/mL | Minimum Inhibitory Concentration (MIC) P. aeruginosa [4]: 8 µg/mL | Minimum Inhibitory Concentration (MIC) S. aureus [5]: 32 µg/mL | IC50 [6]: 16 µg/mL (≈ 6.93 µM) | IC50 [7]: 23 µg/mL (≈ 9.97 µM)

CC[C@H](C)[C@H](NC(=O)CN)C(=O)N[C@@H](Cc1ccccc1)C(=O)N[C@@H](CO)C(=O)N[C@@H](CCCCN)C(=O)N[C@@H](CC(C)C)C(=O)N[C@@H](C)C(=O)N[C@H]1CSCC=CCSC[C@@H](C(=O)N[C@@H](CC(N)=O)C(=O)N[C@@H](CC(C)C)C(=O)N[C@@H](CC(C)C)C(=O)N[C@H](C(=O)N[C@@H](CO)C(=O)NCC(=O)N[C@@H](CC(C)C)C(=O)N[C@@H](CCCCN)C(=O)NCC(N)=O)[C@@H](C)CC)NC(=O)[C@H]([C@@H](C)CC)NC(=O)[C@H](CCCCN)NC(=O)[C@H](CCCCN)NC1=O [compound 12] (H-GIFSKLACKKICNLLISGLKG-NH2; linker 8-12 via X1)
Minimum Inhibitory Concentration (MIC) A. baumannii [1]: 4 µg/mL | Minimum Inhibitory Concentration (MIC) E. coli [2]: 4 µg/mL | Minimum Inhibitory Concentration (MIC) K. pneumoniae [3]: 16 µg/mL | Minimum Inhibitory Concentration (MIC) P. aeruginosa [4]: 16 µg/mL | Minimum Inhibitory Concentration (MIC) S. aureus [5]: >64 µg/mL | IC50 [6]: 70 µg/mL (≈ 31 µM) | IC50 [7]: 50 µg/mL (≈ 22.1 µM)

CC[C@H](C)[C@H](NC(=O)CN)C(=O)N[C@@H](Cc1ccccc1)C(=O)N[C@@H](CO)C(=O)N[C@@H](CCCCN)C(=O)N[C@@H](CC(C)C)C(=O)N[C@@H](C)C(=O)NCC(=O)N[C@H]1CSCc2ccc(cc2)CSC[C@@H](C(=O)N[C@@H](CC(C)C)C(=O)N[C@@H](CC(C)C)C(=O)N[C@H](C(=O)N[C@@H](CO)C(=O)NCC(=O)N[C@@H](CC(C)C)C(=O)N[C@@H](CCCCN)C(=O)NCC(N)=O)[C@@H](C)CC)NC(=O)[C@H](CCCCN)NC(=O)[C@H]([C@@H](C)CC)NC(=O)[C@H](CCCCN)NC1=O [compound 13] (H-GIFSKLAGCKIKCLLISGLKG-NH2; linker 9-13 via pXylylene)
Minimum Inhibitory Concentration (MIC) A. baumannii [1]: 32 µg/mL | Minimum Inhibitory Concentration (MIC) E. coli [2]: 32 µg/mL | Minimum Inhibitory Concentration (MIC) K. pneumoniae [3]: 64 µg/mL | Minimum Inhibitory Concentration (MIC) P. aeruginosa [4]: 64 µg/mL | Minimum Inhibitory Concentration (MIC) S. aureus [5]: >64 µg/mL | IC50 [6]: > 200 µg/mL | IC50 [7]: > 200 µg/mL

CC[C@H](C)[C@H](NC(=O)CN)C(=O)N[C@@H](Cc1ccccc1)C(=O)N[C@@H](CO)C(=O)N[C@@H](CCCCN)C(=O)N[C@@H](CC(C)C)C(=O)N[C@@H](C)C(=O)NCC(=O)N[C@@H](CCCCN)C(=O)N[C@H]1CSCc2cccc(c2)CSC[C@@H](C(=O)N[C@@H](CC(C)C)C(=O)N[C@H](C(=O)N[C@@H](CO)C(=O)NCC(=O)N[C@@H](CC(C)C)C(=O)N[C@@H](CCCCN)C(=O)NCC(N)=O)[C@@H](C)CC)NC(=O)[C@H](CC(N)=O)NC(=O)[C@H](CCCCN)NC(=O)[C@H]([C@@H](C)CC)NC1=O [compound 14] (H-GIFSKLAGKCIKNCLISGLKG-NH2; linker 10-14 via mXylylene)
Minimum Inhibitory Concentration (MIC) A. baumannii [1]: 8 µg/mL | Minimum Inhibitory Concentration (MIC) E. coli [2]: 4 µg/mL | Minimum Inhibitory Concentration (MIC) K. pneumoniae [3]: 16 µg/mL | Minimum Inhibitory Concentration (MIC) P. aeruginosa [4]: 16 µg/mL | Minimum Inhibitory Concentration (MIC) S. aureus [5]: 32 µg/mL | IC50 [6]: 41 µg/mL (≈ 18.2 µM) | IC50 [7]: 49 µg/mL (≈ 21.8 µM)

CC[C@H](C)[C@H](NC(=O)CN)C(=O)N[C@@H](Cc1ccccc1)C(=O)N[C@@H](CO)C(=O)N[C@@H](CCCCN)C(=O)N[C@@H](CC(C)C)C(=O)N[C@@H](C)C(=O)NCC(=O)N[C@@H](CCCCN)C(=O)N[C@H]1CSCc2ccc(cc2)CSC[C@@H](C(=O)N[C@@H](CC(C)C)C(=O)N[C@H](C(=O)N[C@@H](CO)C(=O)NCC(=O)N[C@@H](CC(C)C)C(=O)N[C@@H](CCCCN)C(=O)NCC(N)=O)[C@@H](C)CC)NC(=O)[C@H](CC(N)=O)NC(=O)[C@H](CCCCN)NC(=O)[C@H]([C@@H](C)CC)NC1=O [compound 15] (H-GIFSKLAGKCIKNCLISGLKG-NH2; linker 10-14 via pXylylene)
Minimum Inhibitory Concentration (MIC) A. baumannii [1]: 16 µg/mL | Minimum Inhibitory Concentration (MIC) E. coli [2]: 8 µg/mL | Minimum Inhibitory Concentration (MIC) K. pneumoniae [3]: 32 µg/mL | Minimum Inhibitory Concentration (MIC) P. aeruginosa [4]: 32 µg/mL | Minimum Inhibitory Concentration (MIC) S. aureus [5]: >64 µg/mL | IC50 [6]: 82 µg/mL (≈ 36.4 µM) | IC50 [7]: 88 µg/mL (≈ 39.1 µM)

CC[C@H](C)[C@H](NC(=O)CN)C(=O)N[C@@H](Cc1ccccc1)C(=O)N[C@@H](CO)C(=O)N[C@@H](CCCCN)C(=O)N[C@@H](CC(C)C)C(=O)N[C@@H](C)C(=O)NCC(=O)N[C@@H](CCCCN)C(=O)N[C@H]1CSCC=CCSC[C@@H](C(=O)N[C@@H](CC(C)C)C(=O)N[C@H](C(=O)N[C@@H](CO)C(=O)NCC(=O)N[C@@H](CC(C)C)C(=O)N[C@@H](CCCCN)C(=O)NCC(N)=O)[C@@H](C)CC)NC(=O)[C@H](CC(N)=O)NC(=O)[C@H](CCCCN)NC(=O)[C@H]([C@@H](C)CC)NC1=O [compound 16] (H-GIFSKLAGKCIKNCLISGLKG-NH2; linker 10-14 via X1)
Minimum Inhibitory Concentration (MIC) A. baumannii [1]: 64 µg/mL | Minimum Inhibitory Concentration (MIC) E. coli [2]: 32 µg/mL | Minimum Inhibitory Concentration (MIC) K. pneumoniae [3]: >64 µg/mL | Minimum Inhibitory Concentration (MIC) P. aeruginosa [4]: >64 µg/mL | Minimum Inhibitory Concentration (MIC) S. aureus [5]: >64 µg/mL | IC50 [6]: > 200 µg/mL | IC50 [7]: > 200 µg/mL

CC[C@H](C)[C@H](NC(=O)CN)C(=O)N[C@@H](Cc1ccccc1)C(=O)N[C@@H](CO)C(=O)N[C@@H](CCCCN)C(=O)N[C@@H](CC(C)C)C(=O)N[C@@H](C)C(=O)NCC(=O)N[C@@H](CCCCN)C(=O)N[C@@H](CCCCN)C(=O)N[C@H]1CSCc2cccc(c2)CSC[C@@H](C(=O)N[C@H](C(=O)N[C@@H](CO)C(=O)NCC(=O)N[C@@H](CC(C)C)C(=O)N[C@@H](CCCCN)C(=O)NCC(N)=O)[C@@H](C)CC)NC(=O)[C@H](CC(C)C)NC(=O)[C@H](CC(N)=O)NC(=O)[C@H](CCCCN)NC1=O [compound 17] (H-GIFSKLAGKKCKNLCISGLKG-NH2; linker 11-15 via mXylylene)
Minimum Inhibitory Concentration (MIC) A. baumannii [1]: >64 µg/mL | Minimum Inhibitory Concentration (MIC) E. coli [2]: 64 µg/mL | Minimum Inhibitory Concentration (MIC) K. pneumoniae [3]: >64 µg/mL | Minimum Inhibitory Concentration (MIC) P. aeruginosa [4]: >64 µg/mL | Minimum Inhibitory Concentration (MIC) S. aureus [5]: >64 µg/mL | IC50 [6]: > 200 µg/mL | IC50 [7]: > 200 µg/mL

Reference: patent US20240391965A1, “STAPLED ANTIMICROBIAL PEPTIDES (STAMPS) AND USES THEREOF” (Lytica Therapeutics, Inc., priority 2021, published 2024)
